Experimental data from patent US20240277682A1, “PHARMACEUTICAL HYDRONIDONE FORMULATIONS FOR DISEASES” (Gyre Therapeutics, Inc., priority 2021, published 2024).
Where two headings read alike, the source gives them in different places.

Key:
[1] = PK study of single ascending oral doses in healthy volunteers (Example 7); format: in vivo, human; conditions: for CL renal / AUC / AUC(0-t) / Cmax / Tmax: male, human; for CL renal: plasma and urine; for CL renal / AUC / AUC(0-t) / Cmax / Tmax / Cl_F_pred / HL_Lambda_z / Lambda_z / Vz_F_pred: fasted; for CL renal / AUC / AUC(0-t) / Cmax / Cl_F_pred / HL_Lambda_z / Lambda_z / Vz_F_pred / Amount_Recovered / Percent_Recovered (urinary percentage of Hydronidone): n = 12, Mean(SD); for AUC / AUC(0-t) / Cmax / Tmax: plasma; for AUC: healthy Chinese subjects, read-out: AUCINE_pred; for Tmax: n = 12, Median (Min-Max); for Amount_Recovered / Percent_Recovered (urinary percentage of Hydronidone): urine
Procedure: This was randomized, open-label, 4-period, crossover PK study of single ascending oral doses of Hydronidone in healthy volunteers.
Ascending single oral doses of 200 mg, 400 mg, 600 mg and 800 mg of Hydronidone were given to 12 eligible, healthy male Chinese subjects, 26-38 years of age, satisfying all inclusion and exclusion criteria, and randomly divided into four dose groups, 3 subjects per group, under fasted conditions. According to the Williams Design, the subjects in each group were treated with Hydronidone at four different doses in four periods. The PK blood samples were collected at: 0 (pre-dose), 10 min, 20 min, 30 min, 40 min, 1 hr, 1.5 hr, 2 hr, 3 hr, 4 hr, 5 hr, 6 hr, 8 hr, 10 hr, 12 hr, 16 hr, and 24 hr, and 48 hr post-dose. The subjects also provided PK urine samples at 0 (pre-dose), 5 hr, 12 hr, and 24 hr post-dose. There was additional 24 hr washout period after the end of collection of PK samples, a total of 48 hrs between the first and the next dose level administration. Blood and urine samples were analysed for determination of plasma and urine concentrations of Hydronidone and its metabolites (M3).

[2] = tested on: liver fibrosis due to chronic Hepatitis B; experiment: Phase II study in subjects with liver fibrosis due to chronic Hepatitis B, 52 weeks, Entecavir basic treatment (Examples 11-21); format: in vivo, human
Procedure: This is a Phase II, randomized, double-blind, placebo-controlled, Entecavir-Basic Treatment, multi-center, dose-ranging study on the efficacy and safety of Hydronidone when administered to Chinese subjects with liver fibrosis due to chronic Hepatitis B for 52 consecutive weeks.
Approximately 240 eligible subjects, approximately 60 subjects per dose cohort, are planned to be enrolled in the study and treated daily with Hydronidone oral doses of 30 mg, 60 mg. or 120 mg TID (total daily doses of […], […], and 360 mg, respectively) for 52 consecutive weeks or placebo, concomitantly with basic anti-viral treatment with Entecavir at a daily dose of 0.5 mg. In parallel, a group of 12 subjects will be evaluated for PK.

[3] = Parallel group PK study of multiple ascending oral doses (Example 9); format: in vivo, human
Procedure: This was randomized, open-label, parallel group PK study of multiple ascending oral doses of Hydronidone in healthy Chinese subjects.
In this study, ascending oral doses of Hydronidone of 200 mg, 400 mg, and 600 mg TID, were administered to 27 healthy subjects (15 males and 12 females) divided into 3 groups (9 subjects/group), for four (4) consecutive days. This was an inpatient study. Hydronidone was administered under fasted conditions. Blood and urine samples were collected for PK assessments. The PK assessments were performed upon single (after the first dose) and multiple dosing. Standard safety evaluations were also performed including physical examination, ECG, hematology, serum biochemistry and urinalysis.

[4] = In vitro Phase 2 metabolism in human liver microsomes; format: in vitro ADME; conditions: 30 minutes incubation
[5] = tested on: CCl4 and western diet (WD) induced NASH; experiment: (CCl4+HFD) induced NASH model in mice; format: in vivo
Description: The total NASH score was lower at dosage of 15 milligram per kilogram (mpk) and 50 mpk.

In the case of `Cc1ccc(=O)n(-c2ccc(O)cc2)c1` [Hydronidone, N-(4-hydroxyphenyl)-5-Methyl-2-pyridone], the “amount of intact drug excreted via urine during 48 h” value ([1]; first of four values (doses 200, 400, 600, 800 mg): 200 mg) was 82.25 ± 40.95 mg, the “amount of intact drug excreted via urine during 48 h” value ([1]; fourth of four values: 800 mg) was 234.72 ± 210.50 mg and the CL renal ([1]; single oral dose 200 mg) was 14.7 mL/min. The CL renal ([1]; single oral dose 400 mg) was 11.1 mL/min, the CL renal ([1]; single oral dose 600 mg) was 9.83 mL/min and the CL renal ([1]; single oral dose 800 mg) was 8.7 mL/min. For the same compound, the AUC ([1]; single oral dose 200 mg) was 1380 ng·h/mL, the AUC(0-t) ([1]; single oral dose 200 mg) was 1360 ng·h/mL and the Cmax ([1]; single oral dose 200 mg) was 715 ng/mL. For the same compound, the Tmax ([1]; single oral dose 200 mg) was 19.8 min, the AUC ([1]; single oral dose 400 mg) was 2800 ng·h/mL and the AUC(0-t) ([1]; single oral dose 400 mg) was 2780 ng·h/mL. The Cmax ([1]; single oral dose 400 mg) was 1400 ng/mL, the Tmax ([1]; single oral dose 400 mg) was 19.8 min and the AUC ([1]; single oral dose 600 mg) was 5010 ng·h/mL. It also gave an AUC(0-t) ([1]; single oral dose 600 mg) of 4920 ng·h/mL, a Cmax ([1]; single oral dose 600 mg) of 2500 ng/mL and a Tmax ([1]; single oral dose 600 mg) of 40.2 min. For the same compound, the AUC ([1]; single oral dose 800 mg) was 6310 ng·h/mL, the AUC(0-t) ([1]; single oral dose 800 mg) was 6290 ng·h/mL and the Cmax ([1]; single oral dose 800 mg) was 2960 ng/mL. For the same compound, the Tmax ([1]; single oral dose 800 mg) was 40.2 min, the “amount of intact drug excreted via urine during 48 h” value ([1]; second of four values: 400 mg) was 183.75 ± 142.14 mg and the Cl_F_pred ([1]; single oral dose 200 mg) was 154(39.65) L/hr. The HL_Lambda_z ([1]; single oral dose 200 mg) was 6.9(2.06) hr, the Lambda_z ([1]; single oral dose 200 mg) was 0.1093(0.03) l/hr and the Vz_F_pred ([1]; single oral dose 200 mg) was 1540(644.41) L. For the same compound, the Cl_F_pred ([1]; single oral dose 400 mg) was 154(44.83) L/hr, the HL_Lambda_z ([1]; single oral dose 400 mg) was 5.26(1.58) hr and the Lambda_z ([1]; single oral dose 400 mg) was 0.1434(0.04) l/hr. For the same compound, the Vz_F_pred ([1]; single oral dose 400 mg) was 1180(530.69) L, the Cl_F_pred ([1]; single oral dose 600 mg) was 129(35.67) L/hr and the HL_Lambda_z ([1]; single oral dose 600 mg) was 6.46(2.07) hr. For the same compound, the Lambda_z ([1]; single oral dose 600 mg) was 0.1141(0.02) l/hr, the Vz_F_pred ([1]; single oral dose 600 mg) was 1180(407.19) L and the Cl_F_pred ([1]; single oral dose 800 mg) was 134(35.93) L/hr. For the same compound, the HL_Lambda_z ([1]; single oral dose 800 mg) was 5.54(0.86) hr, the Lambda_z ([1]; single oral dose 800 mg) was 0.1278(0.02) l/hr and the Vz_F_pred ([1]; single oral dose 800 mg) was 1080(336.89) L. The safety and tolerability ([1]; single oral doses of 200, 400, 600, 800 mg, Chinese healthy subjects) was “safe and well tolerated with no adverse events nor SAEs reported”, the “amount of intact drug excreted via urine during 48 h” value ([1]; third of four values: 600 mg) was 218.93 ± 182.73 mg and the Amount_Recovered ([1]; single oral dose 200 mg) was 1.27(1.34) L*mg/L. For the same compound, the “Percent_Recovered (urinary percentage of Hydronidone)” value (from here on “Percent_Recovered”) ([1]; single oral dose 200 mg) was 0.634±0.57%, the “Percent_Recovered” value ([1]; single oral dose 200 mg, listed as hydronidone) was 0.634(0.57) % and the Amount_Recovered ([1]; single oral dose 400 mg) was 1.92(0.87) L*mg/L. For the same compound, the “Percent_Recovered” value ([1]; single oral dose 400 mg) was 0.479±0.22%, the “Percent_Recovered” value ([1]; single oral dose 400 mg, listed as hydronidone) was 0.479(0.22) % and the Amount_Recovered ([1]; single oral dose 600 mg) was 2.86(1.19) L*mg/L. For the same compound, the “Percent_Recovered” value ([1]; single oral dose 600 mg) was 0.476±0.2%, the “Percent_Recovered” value ([1]; single oral dose 600 mg, listed as hydronidone) was 0.476(0.2) % and the Amount_Recovered ([1]; single oral dose 800 mg) was 3.22(2.03) L*mg/L. The “Percent_Recovered” value ([1]; single oral dose 800 mg) was 0.403±0.25%, the “Percent_Recovered” value ([1]; single oral dose 800 mg, listed as hydronidone) was 0.403(0.25) % and the “Ishak score improvement in patients of significant fibrosis” value ([2]; 52 weeks) was “consistent with the results of primary endpoint analysis”. The “improvement in HBeAg(−) vs HBeAg(+) patients” value ([2]; 52 weeks) was “better than in HbeAg(+) patients”, the “response in HBV DNA+ patients” value ([2]; HBV DNA+ after 52 weeks Entecavir therapy, Ishak>3) was “all patients (Ishak>3) responded” and the “Ishak score ≥1 (primary endpoint)” value ([2]; after 52 weeks of therapy, with Entecavir) was “significantly lower the Ishak score”. For the same compound, the “intra group Ishak score change” value ([2]; after 52 weeks, all drug groups) was “statistically significant decline of Ishak score≥1”, the “change of liver stiffness measurement LSM” value ([2]; after 52 weeks, all drug groups, intra group P<0.01) was “decline of LSM(kPa)” and the Ishak score changes ([2]; baseline HBeAg (+) patients after 52 weeks) was “statistical significant changes when dose groups are combined”. The Ishak score changes ([2]; baseline HBeAg (−) patients after 52 weeks) was “statistical significant changes when dose groups are combined”, the “fibrosis in patients of significant fibrosis and cirrhosis” value ([2]; combination of 270 mg and 360 mg groups) was “can improve fibrosis” and the “fibrosis in patients of significant fibrosis and cirrhosis” value ([2]; combination of all drug groups) was “can improve fibrosis”. For the same compound, the LSM scores ([2]; combination of drug groups, Advanced Fibrosis (Ishak≥4)) was “showed statistical significance”, the “best dose group (patients of significant fibrosis)” value ([2]; total daily dose, 52 weeks) was 270 mg and the “number of adverse events reported” value ([3]; 200 mg TID and 400 mg TID multiple-dose groups, mild) was 7 adverse events. The “dose proportionality of exposure” value ([3]; 200-600 mg TID) was “increasing with the dose but without strict dose proportionality”, the “deaths and SAEs” value ([3]; 200-600 mg TID, 4 days) was “No deaths nor SAEs were reported” and the safety and tolerability ([3]; 200-600 mg TID, 4 days) was “safe and well tolerated”. For the same compound, the exposure by sex ([3]; across dose levels) was “Male subjects had lower exposures as compared to female subjects”, the Tmax ([3]; both sexes, human, plasma, oral, 200, 400, 600 mg TID, fasted, healthy Chinese subjects) was roughly 60 min and the accumulation ([3]; single vs multiple dosing, TID for 4 days) was “no obvious accumulation”. The “plasma level at 36 hrs. post-dose” value ([3]; upon single dosing, parent drug and major metabolites) was “undetectable”, the “generation of the M4 metabolite” value [4] was “detected” and the “total NASH score” value ([5]; 15 milligram per kilogram (mpk)) was “lower”. The “fibrosis and cell ballooning (H&E staining)” value ([5]; 15 mpk) was “significantly inhibited”, the “fibrosis and cell ballooning (H&E staining)” value ([5]; 50 mpk) was “significantly inhibited” and the “total NASH score” value ([5]; 50 mpk) was “lower”. For the same compound, the “potency compared with pirfenidone” value ([5]; NASH model in mice) was “more potent than pirfenidone” and the “effect on CCl4 and western diet (WD) induced NASH (H&E staining)” value ([5]; mice) was “protective effect”.
